In patent US12606795B2 (Thankcome Biological Science and Technology (SuZhou) Co., …, priority 2023, dated 2026):
Marks after values point to notes of the source that are not given here.

Legend:
[1] = test system: SPF Kunming mice; assay: Acute toxicity in mice; assay type: in vivo; conditions: for Granulocyte number GR# / Granulocyte percentage GR % / Hematocrit HCT / Hemoglobin HGB / Lymphocyte number Lym# / Lymphocyte percentage Lym % / Mean corpuscular hemoglobin MCH / Mean corpuscular volume MCV / Mean corpuscular-hemoglobin concentration MCHC / Mean platelet volume MPV / Middle cell number Mid# / Middle cell percentage Mid % / Platelet distribution PDW / Platelet-large cell count PLCC / Platelet-large cell ratio PLCR / Plateletcrit PCT / Platelets PLT / Red blood cell distribution width coefficient of variation RDW_CV / Red blood cell distribution width standard deviation RDW_SD / Red blood cells RBC / While blood cells WBC: acute toxicity
Description: The groups were recorded as a sodium chloride solution group, a low dosage group, a medium dosage group and a high dosage group, respectively, and the general conditions and the body weight were observed per day within 7 to 10 d. At the end of the experimental period, blood samples were collected for hematological and serum biochemical analysis (refer to Embodiment 4). A histopathological examination of major organs and tissue was performed on all animals in each group (refer to Embodiment 4).

[2] = test system: APP/PS1 double transgenic mice; assay: Alzheimer's disease in APP/PS1 double transgenic mice; assay type: in vivo; conditions: 1*10^9 CFU/mouse/d 30 d
[3] = high dosage 5×10^11 CFU/d intragastric for 1 d
[4] = low dosage 1×10^9 CFU/d intragastric for 1 d
[5] = medium dosage 5×10^10 CFU/d intragastric for 1 d

Akkermansia muciniphila [AKK PROBIO] was tested, and the “pathological sections of livers and kidneys” value ([1]; acute) was “no significant pathological injury”, the death ([1]; acute intragastric administration, high, medium and low dosage (5×10^11, 5×10^10, 1×10^9 CFU/d)) was “no death occurs” and the “Granulocyte number GR#” value [1, 3] was 0 ± 0 10^9/L. For the same substance, the “Granulocyte percentage GR %” value [1, 3] was 0 ± 0%, the “Hematocrit HCT” value [1, 3] was 7.35 ± 2.76% and the “Hemoglobin HGB” value [1, 3] was 110.00 g/L. The “Lymphocyte number Lym#” value [1, 3] was 0.54 ± 0.37 10^9/L, the “Lymphocyte percentage Lym %” value [1, 3] was 100 ± 0% and the “Mean corpuscular hemoglobin MCH” value [1, 3] was 81.55 pg. For the same substance, the “Mean corpuscular volume MCV” value [1, 3] was 52.60 fL, the “Mean corpuscular-hemoglobin concentration MCHC” value [1, 3] was 1579.00 g/L and the “Mean platelet volume MPV” value [1, 3] was 9.20 ± 0.71 fL. The “Middle cell number Mid#” value [1, 3] was 0 ± 0 10^9/L, the “Middle cell percentage Mid %” value [1, 3] was 0 ± 0% and the “Platelet distribution PDW” value [1, 3] was 21.00%. The “Platelet-large cell count PLCC” value [1, 3] was 218.50 ± 10^9/L, the “Platelet-large cell ratio PLCR” value [1, 3] was 19.70% and the “Plateletcrit PCT” value [1, 3] was 1.04 ± 0.40%. For the same substance, the “Platelets PLT” value [1, 3] was 1112.50 ± 10^9/L, the “Red blood cell distribution width coefficient of variation RDW_CV” value [1, 3] was 13.75% and the “Red blood cell distribution width standard deviation RDW_SD” value [1, 3] was 92.55 fL. For the same substance, the “Red blood cells RBC” value [1, 3] was 1.38 ± 0.35 10^12/L, the “While blood cells WBC” value [1, 3] was 0.54 ± 0.37 10^9/L and the “Granulocyte number GR#” value [1, 4] was 0.05 ± 10^9/L. For the same substance, the “Granulocyte percentage GR %” value [1, 4] was 3.8%, the “Hematocrit HCT” value [1, 4] was 11.70% and the “Hemoglobin HGB” value [1, 4] was 87.50 g/L. The “Lymphocyte number Lym#” value [1, 4] was 0.82 ± 10^9/L, the “Lymphocyte percentage Lym %” value [1, 4] was 95.55% and the “Mean corpuscular hemoglobin MCH” value [1, 4] was 45.35 pg. The “Mean corpuscular volume MCV” value [1, 4] was 55.90 fL, the “Mean corpuscular-hemoglobin concentration MCHC” value [1, 4] was 802.00 g/L and the “Mean platelet volume MPV” value [1, 4] was 9.55 fL. The “Middle cell number Mid#” value [1, 4] was 0.01 ± 10^9/L, the “Middle cell percentage Mid %” value [1, 4] was 0.65% and the “Platelet distribution PDW” value [1, 4] was 19.10%. For the same substance, the “Platelet-large cell count PLCC” value [1, 4] was 273.50 ± 10^9/L, the “Platelet-large cell ratio PLCR” value [1, 4] was 27.65% and the “Plateletcrit PCT” value [1, 4] was 0.89%. The “Platelets PLT” value [1, 4] was 921.00 ± 10^9/L, the “Red blood cell distribution width coefficient of variation RDW_CV” value [1, 4] was 14.85% and the “Red blood cell distribution width standard deviation RDW_SD” value [1, 4] was 76.40 fL. The “Red blood cells RBC” value [1, 4] was 2.12 ± 10^12/L, the “While blood cells WBC” value [1, 4] was 0.88 ± 10^9/L and the “Granulocyte number GR#” value [1, 5] was 0.06 ± 10^9/L. For the same substance, the “Granulocyte percentage GR %” value [1, 5] was 4.20 ± 5.94%, the “Hematocrit HCT” value [1, 5] was 11.70% and the “Hemoglobin HGB” value [1, 5] was 96.00 g/L. The “Lymphocyte number Lym#” value [1, 5] was 0.99 ± 10^9/L, the “Lymphocyte percentage Lym %” value [1, 5] was 95.20% and the “Mean corpuscular hemoglobin MCH” value [1, 5] was 49.20 pg. For the same substance, the “Mean corpuscular volume MCV” value [1, 5] was 53.05 fL, the “Mean corpuscular-hemoglobin concentration MCHC” value [1, 5] was 892.00 g/L and the “Mean platelet volume MPV” value [1, 5] was 9.15 ± 0.78 fL. The “Middle cell number Mid#” value [1, 5] was 0.01 ± 10^9/L, the “Middle cell percentage Mid %” value [1, 5] was 0.60% and the “Platelet distribution PDW” value [1, 5] was 20.15%. The “Platelet-large cell count PLCC” value [1, 5] was 158.50 ± 10^9/L, the “Platelet-large cell ratio PLCR” value [1, 5] was 18.00% and the “Plateletcrit PCT” value [1, 5] was 0.84 ± 0.54%. The “Platelets PLT” value [1, 5] was 891.50 ± 10^9/L, the “Red blood cell distribution width coefficient of variation RDW_CV” value [1, 5] was 13.05% and the “Red blood cell distribution width standard deviation RDW_SD” value [1, 5] was 73.40 fL. For the same substance, the “Red blood cells RBC” value [1, 5] was 2.28 ± 10^12/L, the “While blood cells WBC” value [1, 5] was 1.06 ± 10^9/L and the “weight of major organs (organ indices)” value ([1]; acute, heart, liver, spleen, kidneys, thymus, brain, testes, lungs, stomach, intestine, vs control group) was “substantially no significant difference”. The “activity of glutamic oxalacetic transaminase (GOT) in both serum and liver” value ([1]; acute, vs control group) was “no significant difference”, the “activity of glutamic pyruvate transaminase (GPT) in both serum and liver” value ([1]; acute, vs control group) was “no significant difference” and the “concentration of blood urea nitrogen (BUN) in serum” value ([1]; acute, vs control group) was “no significant difference”. The “content of creatinine (GRE) in serum” value ([1]; acute, vs control group) was “no significant difference”, the “level of glucose (GLU) in both serum and liver” value ([1]; acute, vs control group) was “no significant difference” and the “level of the bile acid in both serum and liver” value ([1]; acute, vs control group) was “no significant difference”. For the same substance, the “level of the cholesterol in both serum and liver” value ([1]; acute, vs control group) was “no significant difference”, the “level of total protein (TP) in both serum and liver” value ([1]; acute, vs control group) was “no significant difference” and the “level of the triglyceride in serum” value ([1]; acute, vs control mice) was “no significant difference”. The “changes of blood glucose per day” value ([1]; acute, vs control saline group) was “no significant difference”, the “changes of body weight per day” value ([1]; acute, vs control saline group) was “no significant difference” and the “changes of food intake per day” value ([1]; acute, vs control saline group) was “no significant difference”. The “level of triglyceride in the liver” value ([1]; acute, vs control saline group) was “significantly lower”, the various blood indicators ([1]; acute, vs control saline group) was “no significant difference” and the “Serum IL-4” value ([2]; APP group 35.00, WT 106.52) was 70.42 ± 3.40^c. For the same substance, the “Serum CCL2” value ([2]; APP group 80.13, WT 59.07) was 67.74 ± 1.51^b, the “Serum CXCL1” value ([2]; APP group 168.91, WT 14.87) was 56.40 ± 2.88^b and the “Serum IL-10” value ([2]; APP group 565.36, WT 2779.61) was 2133.04 ± 18947^b.
